The values that follow come from patent US20260144788A1, “COMPOUND FOR SHP2 PROTEIN DEGRADATION AND MEDICAL USES THEREOF” (UBIX THERAPEUTICS, INC., priority 2022, published 2026).

Structures are written as SMILES.

The assay concerns the target T1, SHP2 protein (Homo sapiens, UniProt Q06124).
T1 sequence (Q06124 1-593): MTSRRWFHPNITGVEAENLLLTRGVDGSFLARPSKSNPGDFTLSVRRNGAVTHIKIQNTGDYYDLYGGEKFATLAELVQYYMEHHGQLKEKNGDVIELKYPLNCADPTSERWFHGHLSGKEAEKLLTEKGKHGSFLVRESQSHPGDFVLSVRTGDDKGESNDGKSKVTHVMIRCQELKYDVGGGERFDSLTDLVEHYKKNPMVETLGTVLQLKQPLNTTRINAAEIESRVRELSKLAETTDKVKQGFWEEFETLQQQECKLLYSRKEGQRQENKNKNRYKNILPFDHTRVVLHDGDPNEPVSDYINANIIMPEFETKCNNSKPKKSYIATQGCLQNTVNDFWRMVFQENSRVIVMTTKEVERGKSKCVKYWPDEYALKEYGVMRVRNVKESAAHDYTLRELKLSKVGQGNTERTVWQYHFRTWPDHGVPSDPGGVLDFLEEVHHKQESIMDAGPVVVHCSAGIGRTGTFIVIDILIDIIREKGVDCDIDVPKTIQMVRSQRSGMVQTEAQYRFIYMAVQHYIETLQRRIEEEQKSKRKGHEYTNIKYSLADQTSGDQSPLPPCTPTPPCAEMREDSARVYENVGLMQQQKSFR
Kind of assay: Measurement of SHP2 protein degradation in NCI-H358 cells (western blotting). The format is cell-based. On the set-up: endogenous in cells; host or cells: NCI-H358. The settings on record: harvested after 24 hours. The essentials: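 H358 cells in RPMI1640/25 mM HEPES/10% FBS, cultured 24 h, then exposed to compound at final 0.001, 0.01 and 0.1 μM for 24 h against a DMSO control. Lysates were normalised for protein by BCA and probed by western blot for SHP2, with GAPDH as loading control.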
For orientation: Immunoblotting shows a protein as a band on a membrane.

With `Cc1cc(C(C(=O)N2C[C@H](O)C[C@H]2C(=O)NCc2ccc(-c3scnc3C)cc2OC2CCN(C(=O)C3CCN(c4nccc(Sc5cnc(N6CCC(C)(CN)CC6)c(CO)n5)c4Cl)CC3)CC2)C(C)C)on1` (stereo partly drawn) [Example 96, (2S,4R)—N-(2-((1-(1-(4-((5-(4-(aminomethyl)-4-methylpiperidin-1-yl)-6-(hydroxymethyl)pyrazin-2-yl)thio)-3-chloropyridin-2-yl)piperidine-4-carbonyl)piperidin-4-yl)oxy)-4-(4-methylthiazol-5-yl)benzyl)-4-hydroxy-1-(3-methyl-2-(3-methylisoxazol-5-yl)butanoyl)pyrrolidine-2-carboxamide], the SHP2% degradation (0.01 μM) stood at 98.9% and the SHP2% degradation (0.1 μM) stood at 99.9%.

For the compound `Cc1cc(C(C(=O)N2C[C@H](O)C[C@H]2C(=O)NCc2ccc(-c3scnc3C)cc2OC2CCN(C(=O)C3CCN(c4nccc(Sc5cnc(N6CCC(C)(CN)CC6)cn5)c4Cl)CC3)CC2)C(C)C)on1` (stereo partly drawn) [Example 92, (2S,4R)—N-(2-((1-(1-(4-((5-(4-(aminomethyl)-4-methylpiperidin-1-yl)pyrazin-2-yl)thio)-3-chloropyridin-2-yl)piperidine-4-carbonyl)piperidin-4-yl)oxy)-4-(4-methylthiazol-5-yl)benzyl)-4-hydroxy-1-(3-methyl-2-(3-methylisoxazol-5-yl)butanoyl)pyrrolidine-2-carboxamide], the SHP2% degradation by setting is: (0.01 μM) 30.1%; (0.1 μM) 80.2%.

Regarding `CC(=O)N[C@H](C(=O)N1C[C@H](O)C[C@H]1C(=O)NCc1ccc(-c2scnc2C)cc1O[C@H]1CC[C@H](C(=O)N2CC(Nc3cccc(Sc4cnc(N5CCC(C)(N)CC5)cn4)c3Cl)C2)CC1)C(C)(C)C` [Example 28, (2S,4R)-1-((S)-2-acetamido-3,3-dimethylbutanoyl)-N-(2-(((1R,4S)-4-(3-((3-((5-(4-amino-4-methylpiperidin-1-yl)pyrazin-2-yl)thio)-2-chlorophenyl)amino)azetidine-1-carbonyl)cyclohexyl)oxy)-4-(4-methylthiazol-5-yl)benzyl)-4-hydroxypyrrolidine-2-carboxamide], the SHP2% degradation (0.01 μM) amounted to 86.9% and the SHP2% degradation (0.1 μM) is 98.5%.

`CC(=O)N[C@H](C(=O)N1C[C@H](O)C[C@H]1C(=O)NCc1ccc(-c2scnc2C)cc1OC1CCN(C(=O)C2CCN(c3cccc(Sc4cnc(N5CCC(C)(N)CC5)c(CO)n4)c3Cl)CC2)CC1)C(C)(C)C` [Example 84, (2S,4R)-1-((S)-2-acetamido-3,3-dimethylbutanoyl)-N-(2-((1-(1-(3-((5-(4-amino-4-methylpiperidin-1-yl)-6-(hydroxymethyl)pyrazin-2-yl)thio)-2-chlorophenyl)piperidine-4-carbonyl)piperidin-4-yl)oxy)-4-(4-methylthiazol-5-yl)benzyl)-4-hydroxypyrrolidine-2-carboxamide]: the SHP2% degradation came to 92.4% (0.01 μM) and 99.9% (0.1 μM).

For the compound `Cc1ncsc1-c1ccc(CNC(=O)[C@@H]2C[C@@H](O)CN2C(=O)[C@@H](NC(=O)C2(F)CC2)C(C)(C)C)c(OC2CCN(CC3(O)CCN(c4nccc(Sc5cnc(N6CCC(C)(CN)CC6)cn5)c4Cl)CC3)CC2)c1` [Example 10, (2S,4R)—N-(2-((1-((1-(4-((5-(4-(aminomethyl)-4-methylpiperidin-1-yl)pyrazin-2-yl)thio)-3-chloropyridin-2-yl)-4-hydroxypiperidin-4-yl)methyl)piperidin-4-yl)oxy)-4-(4-methylthiazol-5-yl)benzyl)-1-((S)-2-(1-fluorocyclopropane-1-carboxamido)-3,3-dimethylbutanoyl)-4-hydroxypyrrolidine-2-carboxamide], the SHP2% degradation by setting is: (0.01 μM) −8.0%; (0.1 μM) 93.9%.

For the compound `CC(=O)N[C@H](C(=O)N1C[C@H](O)C[C@H]1C(=O)NCc1ccc(-c2scnc2C)cc1O[C@H]1CC[C@H](C(=O)N2CC(Nc3nccc(Sc4cnc(N5CCC(C)(N)CC5)cn4)c3Cl)C2)CC1)C(C)(C)C` [Example 39, (2S,4R)-1-((S)-2-acetamido-3,3-dimethylbutanoyl)-N-(2-(((1R,4S)-4-(3-((4-((5-(4-amino-4-methylpiperidin-1-yl)pyrazin-2-yl)thio)-3-chloropyridin-2-yl)amino)azetidine-1-carbonyl)cyclohexyl)oxy)-4-(4-methylthiazol-5-yl)benzyl)-4-hydroxypyrrolidine-2-carboxamide], the SHP2% degradation is 83.6% (0.01 μM) and 98.1% (0.1 μM).

Take `Cc1cn([C@H](C(=O)N2C[C@H](O)C[C@H]2C(=O)NCc2ccc(-c3scnc3C)cc2OC2CCN(C(=O)C3CCN(c4nccc(Sc5cnc(N6CCC(C)(N)CC6)c(CO)n5)c4Cl)CC3)CC2)C(C)C)nn1` [Example 109, (2S,4R)—N-(2-((1-(1-(4-((5-(4-amino-4-methylpiperidin-1-yl)-6-(hydroxymethyl)pyrazin-2-yl)thio)-3-chloropyridin-2-yl)piperidine-4-carbonyl)piperidin-4-yl)oxy)-4-(4-methylthiazol-5-yl)benzyl)-4-hydroxy-1-((S)-3-methyl-2-(4-methyl-1H-1,2,3-triazol-1-yl)butanoyl)pyrrolidine-2-carboxamide]: the SHP2% degradation runs as follows: (0.01 μM) 99.0%; (0.1 μM) 99.4%.

Turning to `CC(=O)N[C@H](C(=O)N1C[C@H](O)C[C@H]1C(=O)NCc1ccc(-c2scnc2C)cc1O[C@H]1CC[C@H](C(=O)N2CCC(N3CCc4c(Sc5cnc(N6CCC7(CC6)CO[C@@H](C)[C@H]7N)cn5)cccc43)CC2)CC1)C(C)(C)C` [Example 33, (2S,4R)-1-((S)-2-acetamido-3,3-dimethylbutanoyl)-N-(2-(((1R,4S)-4-(4-(4-((5-((3S,4S)-4-amino-3-methyl-2-oxa-8-azaspiro[4.5]decan-8-yl)pyrazin-2-yl)thio)indolin-1-yl)piperidine-1-carbonyl)cyclohexyl)oxy)-4-(4-methylthiazol-5-yl)benzyl)-4-hydroxypyrrolidine-2-carboxamide], the SHP2% degradation by setting is: (0.01 μM) 96.6%; (0.1 μM) 99.1%.

On to `Cc1ncsc1-c1ccc(CNC(=O)[C@@H]2C[C@@H](O)CN2C(=O)[C@@H](NC(=O)C2(F)CC2)C(C)(C)C)c(O[C@H]2CC[C@H](C(=O)N3CC(Nc4nccc(Sc5cnc(N6CCC7(CC6)CO[C@@H](C)[C@H]7N)cn5)c4Cl)C3)CC2)c1` [Example 22, (2S,4R)—N-(2-(((1R,4S)-4-(3-((4-((5-((3S,4S)-4-amino-3-methyl-2-oxa-8-azaspiro[4.5]decan-8-yl)pyrazin-2-yl)thio)-3-chloropyridin-2-yl)amino)azetidine-1-carbonyl)cyclohexyl)oxy)-4-(4-methylthiazol-5-yl)benzyl)-1-((S)-2-(1-fluorocyclopropane-1-carboxamido)-3,3-dimethylbutanoyl)-4-hydroxypyrrolidine-2-carboxamide], for which the SHP2% degradation (0.01 μM) is reported as 95.7% and the SHP2% degradation (0.1 μM) turned out to be 97.1%.

On to `Cc1cc(C(C(=O)N2C[C@H](O)C[C@H]2C(=O)NCc2ccc(-c3scnc3C)cc2O[C@H]2CC[C@H](C(=O)N3CC(Nc4cccc(Sc5cnc(N6CCC(C)(CN)CC6)cn5)c4Cl)C3)CC2)C(C)C)on1` (stereo partly drawn) [Example 114, (2S,4R)—N-(2-(((1R,4S)-4-(3-((3-((5-(4-(aminomethyl)-4-methylpiperidin-1-yl)pyrazin-2-yl)thio)-2-chlorophenyl)amino)azetidine-1-carbonyl)cyclohexyl)oxy)-4-(4-methylthiazol-5-yl)benzyl)-4-hydroxy-1-(3-methyl-2-(3-methylisoxazol-5-yl)butanoyl)pyrrolidine-2-carboxamide], for which the SHP2% degradation reads like this: (0.01 μM) 48.3%; (0.1 μM) 88.1%.

As for `CC(=O)N[C@H](C(=O)N1C[C@H](O)C[C@H]1C(=O)NCc1ccc(-c2scnc2C)cc1O[C@H]1CC[C@H](C(=O)N2CC(Nc3cccc(Sc4cnc(N5CCC6(CC5)Cc5ncccc5[C@H]6N)cn4)c3Cl)C2)CC1)C(C)(C)C` [Example 31, (2S,4R)-1-((S)-2-acetamido-3,3-dimethylbutanoyl)-N-(2-(((1R,4S)-4-(3-((3-((5-((S)-5-amino-5,7-dihydrospiro[cyclopenta[b]pyridine-6,4′-piperidin]-1′-yl)pyrazin-2-yl)thio)-2-chlorophenyl)amino)azetidine-1-carbonyl)cyclohexyl)oxy)-4-(4-methylthiazol-5-yl)benzyl)-4-hydroxypyrrolidine-2-carboxamide], the SHP2% degradation is, setting by setting: (0.01 μM) 76.3%; (0.1 μM) 99.4%.

`Cc1cn([C@H](C(=O)N2C[C@H](O)C[C@H]2C(=O)NCc2ccc(Cl)cc2OC2CCN(C(=O)C3CCN(c4nccc(Sc5cnc(N6CCC7(CC6)CO[C@@H](C)[C@H]7N)c(CO)n5)c4Cl)CC3)CC2)C(C)C)nn1` [Example 112, (2S,4R)—N-(2-((1-(1-(4-((5-((3S,4S)-4-amino-3-methyl-2-oxa-8-azaspiro[4.5]decan-8-yl)-6-(hydroxymethyl)pyrazin-2-yl)thio)-3-chloropyridin-2-yl)piperidine-4-carbonyl)piperidin-4-yl)oxy)-4-chlorobenzyl)-4-hydroxy-1-((S)-3-methyl-2-(4-methyl-1H-1,2,3-triazol-1-yl)butanoyl)pyrrolidine-2-carboxamide]: the SHP2% degradation reads like this: (0.01 μM) 93.8%; (0.1 μM) 99.7%.
